For data set [1] the following is noted: in vivo. The procedure:
The pharmacokinetics of nepicastat after a single 40 mg dose was compared in men and women.

Data set [2] relates to serum T3 and T4 levels. Briefly: Thyroid function (serum T3, T4) in iodine-deficient rats. It counts as in vivo, Sprague-Dawley rats. To be noted: for reduction in serum T3 / reduction in serum T4: 1 mg/kg po b.i.d.; for effect on serum T3 and T4 levels: methimazole 1 mg/kg b.i.d. (2 mg/kg/d). On the procedure:
Since the heterocyclic portion of nepicastat is structurally similar to methimazole, a known potent suppressor of mammalian thyroid function, the effects of nepicastat on thyroid function were evaluated at doses of 2.0 and 6.2 mg/kg, po, b.i.d in iodine-deficient Sprague-Dawley rats (n=9-12) for 10 days.
Male Sprague-Dawley rats, weighing 180-200 grams, were fed an iodine deficient diet (Purina, 5891C, Lot 1478, 0.066±0.042 mg iodine/kg sample) ad libitum 14 days prior to treatment. Animals were weighed and randomly assigned to one of the following treatment groups (n=12 per group): nepicastat at 2.0 mg/kg, nepicastat at 6.2 mg/kg, Methimazole at 1 mg/kg, or vehicle at 1 ml/kg. Each group of rats was dosed orally in the evening and the following morning, approximately 12 hours apart, for 10 consecutive days.
Orbital blood samples were taken at day −3, 0, 3, 7, and 9 (day 0 was the first day of dosing). Serum samples were analyzed for T3 and T4 levels using a radioimmunoassay.
To statistically evaluate changes in T3 and T4 levels, a change from baseline was calculated from the day −3 time point. A non-parametric two-way within subject analysis of variance (ANOVA) was conducted. Also a one-way ANOVA was performed to detect if a significant difference from control occurred. Pairwise analyses between controls and each treatment group were carried out using Fisher's LSD strategy to control the experiment-wise error rate. For statistical analysis of catecholamine levels, a one-way ANOVA with factor DOSE was performed. Pairwise analyses between treated and controls at each dose were carried out using Fisher's LSD strategy to control the experiment-wise error rate.

The nature of data set [3]: Pilot observation studies in rats, acute and repeated oral administration.
Procedure: Similarly, in a separate study, physostigmine (1, 3, 10 or 30 mg/kg p.o.) or vehicle were administered acutely to groups of 8 rats.
In pilot studies of repeated administration, nepicastat (100 mg/kg p.o.) or vehicle was administered twice daily (06:00 and 18:00 h) for 10 days (once on day 11) to groups of 8 rats. The weights of the animals were monitored throughout the study and, on day 5, the animals were observed ‘blind’ by an independent observer in order to assess any overt behavioural/physiological effects following repeated administration. In a separate study, groups of 8 rats received vehicle or physostigmine (0.3, 1, 3 or 10 mg/kg p.o.) using the same dosing schedule. The weights of the animals were monitored throughout the study.
Data set [4] deals with short-term or working memory in rats. Briefly: Delayed-matching-to-position (DMTP) test. It counts as in vivo, Sprague Dawley rats. The procedure:
In the present DMTP study, rats were trained to remember the position of a lever across a scheduled delay of either 0, 8, 16 or 32 s in order to earn food reward. […] Another group of rats received only vehicle treatment throughout the experiment. […] The dependent measures in the present study included percentage of correct choices, the latency to make choice responses and the number of trials which the animals were able to complete during the 70 min test sessions. Changes in the former measure may indicate changes in memory and/or attentional function whereas changes in the latter two measures may be indicative of other non-cognitive effects of the drugs. Matching to position training began next. This and all subsequent training was conducted with the partitions fitted into the operant boxes. The sessions were initially 50 minutes long. Rats were placed in the operant box and the session began when the houselight was illuminated. Following a 30 s intertrial interval (ITI), one of the two levers (the sample lever) was inserted into the chamber. The lever remained inserted into the chamber until a lever-press response occurred. […] As soon as the magazine flap was pressed the magazine light was extinguished and both levers were inserted. […] The magazine light remained on until the flap was pressed. […] A 30 s ITI was initiated before the commencement of a new trial. The lever inserted as the sample lever was semi-randomly determined such that the right and lefthand levers were presented as the sample lever 8 times in a block of 16 trials. Following 24 sessions, the animals were performing the matching to position task with a high degree of accuracy. On Session 25 a variable delay interval was interposed between the depression of the sample lever and presentation of the levers on the choice trial. After a response to the sample lever, the choice levers were inserted following the first flap press occurring after either a 0 s (immediate), 4, 8 or 16 s delay. The order of the four types of trials (0, 4, 8 or 16 s delay) was semi-randomly determined with the constraint that in a 16 trial block, each delay occurred 4 times; twice on a left trial and twice on a right trial. […] The same trial was reinstated following the end of the ITI. From Session 25 onward the time-out period following incorrect choices was omitted and the session length was increased to 70 minutes. […] Due to poor performance at the 64 s delay, however, this delay was not used in any further sessions. On Session 59, delays of 0, 8, 16 and 32 s were used. These delays were used in all subsequent sessions. Only 51 of the 56 rats completed more than 24 trials (correction plus non-correction) during Session 59. These rats were selected and semi-randomly assigned to the following 7 groups such that the groups were matched on performance (percent correct, response latency and number of trials completed): […] Thus, the drug treatments administered to the seven groups during the 11 consecutive days of the present experiment were: The data collected and analyzed in the present DMTP study include 1) the percentage of correct responses; 2) the latency between performance of a response to the sample lever and the performance of the choice response and 3) the total number of correction and non-correction trials completed. The former two dependent measures were collected for the non-correction trials only. […] Two-way analysis of variance (ANOVA) with drug treatment as the between-subjects factor and delay (0, 8, 16 or 32 s) as the within-subjects factor was used to analyze percentage of correct choices and response latency. These analyses were conducted separately for each block of data. Significant interactions were followed by a one-way ANOVA which was conducted at each delay. A significant main effect from a one-way ANOVA was followed by a two-tailed Dunnett's t-test. One-way ANOVA followed by a post hoc Dunnett's test, when appropriate, was used to analyze the mean number of trials completed. […]

Take `CC(=O)NCc1c[nH]c(=S)n1[C@H]1CCc2c(F)cc(F)cc2C1` [N-acetyl metabolite of nepicastat]: in data set [1], the “Cmax and AUC of the N-acetyl metabolite, slow vs fast acetylators” value is on record as “much lower in the slow acetylators”.

Turning to `Cn1cc[nH]c1=S` [methimazole], the “reduction in serum T3” value was determined as 31% in data set [2] (day 3, 4 h post-dose); 42% in data set [2] (day 7, 4 h post-dose); 44% in data set [2] (day 9, 4 h post-dose). Moreover, the “reduction in serum T4” value in data set [2] (day 3, 4 h post-dose) is 46%; in data set [2] (day 7, 4 h post-dose) it was 58%. Further, the “effect on serum T3 and T4 levels” value was “significantly reduced” in data set [2] and “significantly (p<0.05) lowered” in data set [2] (listed as Methimazole). Besides, the “T4 levels vs vehicle” value in data set [2] (methimazole 1.0 mg/kg, day nine) is on record as “marginally (p<0.10) lower”.

For the compound `CNC(=O)Oc1ccc2c(c1)[C@]1(C)CCN(C)[C@@H]1N2C` [physostigmine, Physostigmine sulphate, reference compound], the “convulsions on repeated administration” value in data set [3] (physostigmine 3 mg/kg p.o.) is 2 of 8 animals convulsed on day 5. Also, the “mortality on repeated administration” value in data set [3] (physostigmine 10 mg/kg p.o.) is 3 of 8 animals were found dead on day 2. Further, the acute toxicity result in data set [3] (physostigmine 30 mg/kg p.o.) is “Signs of toxicity were observed”. Besides, the “effects of repeated administration” value in data set [3] (physostigmine 0.3 or 1 mg/kg) is listed as “no effects”. Moreover, the “acute doses inducing overt behavioural effects” value in data set [3] (physostigmine p.o.) is recorded as no less than 3 mg/kg. The all dependent measures result in data set [4] (Block 2) was “no significant effects on any of the dependent measures”. The choice accuracy entry in data set [4] (Block 3, physostigmine 1.0 mg/kg b.i.d.) is given as “delay-independent impairment in choice accuracy”. For the same compound, the “response latency, number of trials completed” value in data set [4] (Block 5) was “did not significantly affect”. For the same compound, in data set [4] (administered alone, 10 days), the “improvement of DMTP performance” value was “did not improve performance”. For the same compound, the “reversal of the effects of scopolamine” value in data set [4] (day 11 scopolamine test) is recorded as “did not appear to reverse the effects of scopolamine”.
